Patent publication US20230293526A1, “METHOD FOR TREATING CANCER WITH A REVERSE TRANSCRIPTASE INHIBITOR” (PrimeFour Therapeutics, Inc., priority 2020, published 2023)

Columns and labels:
Assay in all cases: Cell proliferation CellTiterGlo Ex.2
Format in all cases: cell-based
[1] = system: A2058; details: Homo sapiens; A2058 (Skin), 72 h
Summary of the method: (§1)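 Cells were seeded, incubated overnight at 37 °C, then dosed at 10, 3, 1, 0.3, 0.1, 0.03, 0.01 and 0.003 μM for 72 h (5% or 10% CO2). CellTiterGlo luminescence gave percent viability relative to 0.10% DMSO (high) and 10 μM staurosporine (low) controls.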

[2] = system: A2780; details: Homo sapiens; A2780 (Ovary), 72 h
Summary of the method: as §1

[3] = system: A427; details: Homo sapiens, A-427; A427 (Lung), 72 h
Summary of the method: as §1

[4] = system: A498; details: Homo sapiens; A498 (Kidney), 72 h
Summary of the method: as §1

[5] = system: Caki-1; details: Homo sapiens; Caki-1 (Kidney), 72 h
Summary of the method: as §1

[6] = system: Calu-6; details: Homo sapiens; Calu-6 (Lung), 72 h
Summary of the method: as §1

[7] = system: EFM-192A; details: EFM-192A (Breast), 72 h
Summary of the method: as §1

[8] = system: EFM-19; details: Homo sapiens; EFM-19 (Breast), 72 h
Summary of the method: as §1

[9] = system: HCC 1569; details: Homo sapiens, HCC1569; HCC 1569 (Breast), 72 h
Summary of the method: as §1

[10] = system: HCC38; details: Homo sapiens; HCC38 (Breast), 72 h
Summary of the method: as §1

[11] = system: HEC-1-B; details: Homo sapiens; HEC-1-B (Endometrium), 72 h
Summary of the method: as §1

[12] = system: JIMT-1; details: Homo sapiens; JIMT-1 (Breast), 72 h
Summary of the method: as §1

[13] = system: JVM-3; details: Homo sapiens; JVM-3 (Blood), 72 h
Summary of the method: as §1

[14] = system: KG-1; details: Homo sapiens; KG-1 (Blood), 72 h
Summary of the method: as §1

[15] = system: MCAS; details: MCAS (Ovary), 72 h
Summary of the method: as §1

[16] = system: MDA MB 231; details: Homo sapiens; MDA MB 231 (Breast), 72 h
Summary of the method: as §1

[17] = system: NCI-H1563; details: Homo sapiens; NCI-H1563 (Lung), 72 h
Summary of the method: as §1

[18] = system: NCI-H1581; details: Homo sapiens; NCI-H1581 (Lung), 72 h
Summary of the method: as §1

[19] = system: NCI-H2110; details: NCI-H2110 (Lung), 72 h
Summary of the method: as §1

[20] = system: OCI-LY19; details: Homo sapiens; OCI-LY19 (Blood), 72 h
Summary of the method: as §1

[21] = system: OPM-2; details: Homo sapiens; OPM-2 (Blood), 72 h
Summary of the method: as §1

[22] = system: RL95-2; details: Homo sapiens; RL95-2 (Endometrium), 72 h
Summary of the method: as §1

[23] = system: SCLC-21H; details: Homo sapiens; SCLC-21H (Lung), 72 h
Summary of the method: as §1

[24] = system: SK-BR-3; details: Homo sapiens; SK-BR-3 (Breast), 72 h
Summary of the method: as §1

[25] = system: SK-ES-1; details: Homo sapiens, SK-ES1; SK-ES-1 (Bone), 72 h
Summary of the method: as §1

[26] = system: SK-OV3; details: Homo sapiens, SK-OV-3; SK-OV3 (Ovary), 72 h
Summary of the method: as §1

[27] = system: SNU-216; details: SNU-216 (Stomach), 72 h
Summary of the method: as §1

[28] = system: SW-1783; details: Homo sapiens, SW1783; SW-1783 (Brain), 72 h
Summary of the method: as §1

[29] = system: Saos-2 EC; details: Homo sapiens; Saos-2 EC (Bone), 72 h
Summary of the method: as §1

[30] = system: SiHa; details: Homo sapiens; SiHa (Cervix), 72 h
Summary of the method: as §1

[31] = system: T98G; details: Homo sapiens; T98G (Brain), 72 h
Summary of the method: as §1

[32] = system: U118MG; details: Homo sapiens, U-118-MG; U118MG (Brain), 72 h
Summary of the method: as §1

[33] = system: U87MG; details: Homo sapiens, U-87 MG; U87MG (Brain), 72 h
Summary of the method: as §1

## C#C[C@]1(CO)O[C@@H](n2cnc3c(=O)[nH]c(N)nc32)C[C@@H]1O [compound 13]
[1]
  IC50: > 10 µM
[2]
  IC50: 4.58 µM
[3]
  IC50: 0.55 µM
[4]
  IC50: > 10 µM
[5]
  IC50: 9.76 µM
[6]
  IC50: > 10 µM
[7]
  IC50: > 10 µM
[8]
  IC50: 2.65 µM
[9]
  IC50: > 10 µM
[10]
  IC50: 6.37 µM
[11]
  IC50: > 10 µM
[12]
  IC50: 7 µM
[13]
  IC50: 2.45 µM
[14]
  IC50: > 10 µM
[15]
  IC50: > 10 µM
[16]
  IC50: 3.85 µM
[17]
  IC50: > 10 µM
[18]
  IC50: 2.97 µM
[19]
  IC50: 3.41 µM
[20]
  IC50: 0.56 µM
[21]
  IC50: > 10 µM
[22]
  IC50: 5.38 µM
[23]
  IC50: 6.78 µM
[24]
  IC50: > 10 µM
[25]
  IC50: 4.99 µM
[26]
  IC50: 4 µM
[27]
  IC50: 1.74 µM
[28]
  IC50: 2.25 µM
[29]
  IC50: 3.99 µM
[30]
  IC50: 2.45 µM
[31]
  IC50: > 10 µM
[32]
  IC50: 5.74 µM
[33]
  IC50: 6.39 µM
